Laboratory results from EP4759807A1, “PROTEOLYSIS TARGETING CHIMERA COMPOUND FOR DEGRADING IRAK4 AND USE THEREOF” (Shenzhen Zhongge Biological Technology Co., Ltd., priority 2023, dated 2025).
Structures can show the parent of a compound that is named as a salt. Where two headings read alike, the source gives them in different places.

Biological target: T1, IRAK4 (Homo sapiens, UniProt Q9NWZ3)
T1 sequence (Q9NWZ3 1-460): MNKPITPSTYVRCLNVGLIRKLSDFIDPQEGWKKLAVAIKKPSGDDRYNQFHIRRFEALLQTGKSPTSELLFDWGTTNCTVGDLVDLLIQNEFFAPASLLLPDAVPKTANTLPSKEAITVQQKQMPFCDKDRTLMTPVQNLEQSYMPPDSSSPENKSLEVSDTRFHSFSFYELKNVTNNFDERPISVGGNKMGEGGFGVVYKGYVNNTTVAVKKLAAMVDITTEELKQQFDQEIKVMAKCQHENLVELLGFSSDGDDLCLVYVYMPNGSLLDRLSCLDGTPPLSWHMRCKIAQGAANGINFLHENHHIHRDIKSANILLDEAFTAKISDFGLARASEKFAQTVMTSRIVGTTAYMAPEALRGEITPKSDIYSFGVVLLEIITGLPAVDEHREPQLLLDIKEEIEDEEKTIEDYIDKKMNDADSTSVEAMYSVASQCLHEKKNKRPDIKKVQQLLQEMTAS
Experiment: Hibit fluorescence detection of proteolysis (IRAK4-HiBiT in HEK293T cells)
Format: cell-based
Design: host or cells: HEK293T (ATCC)
Summary of the method: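 Degradation read-out: luminescence from lytic HiBiT detection (15 min, room temperature) after 24 h compound exposure (37 °C, 5% CO2) of HEK293T cells transiently expressing IRAK4 fused to a HiBiT tag. Data fitted to a bell-shaped four-parameter model giving two EC50 values.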

[1] = IRAK4-HiBiT, HEK293T cells, 24 h
[2] = IRAK4-HiBiT, HEK293T cells, 24 h, read-out: DC50

SMILES | Dmax (HEK-293T) [%] | DC50 [1] [nM] | DC50 [2] [nM] | Dmax [1]
Cn1c(=O)n(C2CCC(=O)NC2=O)c2cccc(NC(=O)CN3CCN(C[C@H]4CC[C@H](n5cc(-n6cc(-n7ccc8cc(C(N)=O)cnc87)nn6)c(C(F)F)n5)CC4)CC3)c21 (stereo partly shown) [Example 107, 1-(1-(3-(difluoromethyl)-1-((1r,4r)-4-((4-(2-((1-(2,6-dioxopiperidin-3-yl)-3-methyl-2-oxo-2,3-dihydro-1H-benzo[d]imidazol-4-yl)amino)-2-oxoethyl)piperazin-1-yl)methyl)cyclohexyl)-1H-pyrazol-4-yl)-1H - 1,2,3-triazol-4-yl)-1H-pyrrolo[2,3-b]pyridine-5-carboxamide] | > 80 | 1 to 5 |  | 
Cn1c(=O)n(C2CCC(=O)NC2=O)c2cccc(N3CCC4(CCN(C[C@H]5CC[C@H](n6cc(-n7cc(-c8cnn9ccc(NCC%10CC%10)nc89)nn7)c(C(F)F)n6)CC5)CC4)C3)c21 (stereo partly shown) [Example 109] | > 80 | 0.5 to 1 |  | 
Cn1c(=O)n(C2CCC(=O)NC2=O)c2cccc(N3CCN(C4CCN(C[C@H]5CC[C@H](n6cc(-n7cc(-c8cnn9ccc(NCC%10CC%10)nc89)nn7)c(C(F)F)n6)CC5)CC4)CC3)c21 (stereo partly shown) [Example 110, 3-(4-(4-(1-(((1r,4r)-4-(4-(5-((cyclopropylmethyl)amino)pyrazolo[1,5-a]pyrimidin-3-yl)-1H-1,2,3-triazol-1-yl)-3-(difluoromethyl)-1H-pyrazol-1-ylcyclohexyl)methyl)piperidin-4-yl)piperazin-1-yl)3-methyl-2-oxo-2,3-dihydro-1H-benzo[d]imidazol-1-yl)piperidine-2,6-dione] | > 80 | < 0.5 |  | 
Cn1c(=O)n(C2CCC(=O)NC2=O)c2cccc(N3CCC(N4CCN(C[C@H]5CC[C@H](n6cc(-n7cc(-c8cnn9ccc(N%10CCS(=O)(=O)CC%10)nc89)nn7)c(C(F)F)n6)CC5)CC4)CC3)c21 (stereo partly shown) [Example 111, 3-(4-(4-(((1r,4r)-4-(3-(difluoromethyl)-4-(4-(5-(1,1-dioxodimorpholinyl)pyrazolo[1,5-a]pyrimidin-3-yl)-1H-1,2,3-triazol-1-yl)-1H-pyrazol-1-ylcyclohexyl)methyl)piperazin-1-yl)piperidin-1-yl)-3-methyl-2-oxo-2,3-dihydro-1H-benzo[d]imidazol-1-yl)pyridine-2,6-dione] | > 80 | 0.5 to 1 |  | 
Cn1c(=O)n(C2CCC(=O)NC2=O)c2cccc(N3CCC4(CCN(C[C@H]5CC[C@H](n6cc(-n7cc(-c8cnn9ccc(N%10CCS(=O)(=O)CC%10)nc89)nn7)c(C(F)F)n6)CC5)CC4)CC3)c21 (stereo partly shown) [Example 112] | > 80 | < 0.5 |  | 
Cn1c(=O)n(C2CCC(=O)NC2=O)c2cccc(N3CCC(N4CCN(C[C@H]5CC[C@H](n6cc(-n7cc(-c8cnn9ccc(NCC%10CC%10)nc89)nn7)c(C(F)F)n6)CC5)CC4)CC3)c21 (stereo partly shown) [Example 114] | > 80 | < 0.5 |  | 
Cn1c(=O)n(C2CCC(=O)NC2=O)c2cccc(N3CCN(C4CCN(C[C@H]5CC[C@H](n6cc(-n7cc(-c8cnn9ccc(N%10CCC[C@H](N)C%10)nc89)nn7)c(C(F)F)n6)CC5)CC4)CC3)c21 (stereo partly drawn) [Example 117, 3-{4-[4-(1-{[(1S,4r)-4-[3-(difluoromethyl)-4-(4-{5-[(3S)-3-aminohexahydropyridin-1-yl]pyrazolo[1,5-a]pyrimidin-3-yl}-1,2,3-triazol-1-yl)pyrazol-1-yl]cyclohexyl]methyl}hexahydropyridin-4-yl)piperazin-1-yl]-3-methyl-2-oxobenzo[d]imidazol-1-yl}hexahydropyridine-2,6-dione hydrochloride] | > 80 | 1 to 5 |  | 
Cn1c(=O)n(C2CCC(=O)NC2=O)c2cccc(N3CCC4(CCN(C[C@H]5CC[C@H](n6cc(-n7cc(-c8cnn9ccc(N%10CCC(C)(O)CC%10)nc89)nn7)c(C(F)F)n6)CC5)CC4)CC3)c21 (stereo partly shown) [Example 121] | > 80 | < 0.5 |  | 
Cn1c(=O)n(C2CCC(=O)NC2=O)c2cccc(N3CCC4(CCN(C[C@H]5CC[C@H](n6cc(-n7cc(-c8cnn9ccc(N%10CCNCC%10)nc89)nn7)c(C(F)F)n6)CC5)CC4)CC3)c21 (stereo partly shown) [Example 129, 3-(4-(9-(((1r,4r)-4-(3-(difluoromethyl)-4-(4-(5-(piperazin-1-yl)pyrazolo[1,5-a]pyrimidin-3-yl)-1H-1,2,3-triazol-1-yl)-1H-pyrazol-1-yl)cyclohexyl)methyl)-3,9-diazaspiro[5.5]undecan-3-yl)-3-methyl-2-oxo-2,3-dihydro-1H-benzo[d]imidazol-1-yl)piperidine-2,6-dione dihydrochloride] | > 80 | < 0.5 |  | 
Cn1c(=O)n(C2CCC(=O)NC2=O)c2cccc(N3CCC4(CCN(C[C@H]5CC[C@H](n6cc(-n7cc(-c8cnn9ccc(N%10CCNCC%10)nc89)nn7)c(C(F)F)n6)CC5)CC4)C3)c21 (stereo partly shown) [Example 130, 3-(4-(8-(((1r,4r)-4-(3-(difluoromethyl)-4-(4-(5-(piperazin-1-yl)pyrazolo[1,5-a]pyrimidin-3-yl)-1H-1,2,3-triazol-1-yl)-1H-pyrazol-1-yl)cyclohexyl)methyl)-2,8-diazaspiro[4.5]dec-2-yl)-3-methyl-2-oxo-2,3-dihydro-1H-benzo[d]imidazol-1-yl)piperidine-2,6-dione dihydrochloride] | > 80 | 0.5 to 1 |  | 
Cl.Cn1c(=O)n(C2CCC(=O)NC2=O)c2cccc(N3CCN(C4CCN(C[C@H]5CC[C@H](n6cc(-n7cc(-c8cnn9ccc(N%10CCNCC%10)nc89)nn7)c(C(F)F)n6)CC5)CC4)CC3)c21 (stereo partly shown) [Example 131, 3-(4-(4-(1-(1r,4r)-4-(3-difluoromethyl)-4-(4-(5-(piperazin-1-yl)pyrazolo[1,5-a]pyrimidin-3-yl)-1H-1,2,3-triazol-1-yl)-1H-pyrazol-1-yl)cyclohexyl)methyl)piperidin-4-yl)piperazin-1-yl)-3-methyl-2-oxo-2,3-dihydro-1H-benzoimidazol-1-yl)piperidine-2,6-dione hydrochloride] |  |  | 0.5 to 1 | 
Cl.Cn1c(=O)n(C2CCC(=O)NC2=O)c2cccc(N3CCN(C4CCN(C[C@H]5CC[C@H](n6cc(-n7cc(-c8cnn9ccc(N%10CCNCC%10)nc89)nn7)c(C(F)F)n6)CC5)CC4)CC3)c21 (stereo partly shown) [Example 131] |  |  |  | A (Dmax ≥ 80%)
Cn1c(=O)n(C2CCC(=O)NC2=O)c2cccc(N3CCN(C4CCN(C[C@H]5CC[C@H](n6cc(-n7cc(-c8cnn9ccc(NCCC(C)(C)O)nc89)nn7)c(C(F)F)n6)CC5)CC4)CC3)c21 (stereo partly shown) [Example 133] | > 80 | < 0.5 |  | 
Cn1c(=O)n(C2CCC(=O)NC2=O)c2cccc(N3CCC4(CCN(C[C@H]5CC[C@H](n6cc(-n7cc(-c8cnn9ccc(NCCC(C)(C)O)nc89)nn7)c(C(F)F)n6)CC5)C4)CC3)c21 (stereo partly shown) [Example 134] | > 80 | < 0.5 |  | 
Cn1c(=O)n(C2CCC(=O)NC2=O)c2cccc(N3CCC4(CCN(CC5CCC(n6cc(-n7cc(-c8cnn9ccc(N%10CCC(O)CC%10)nc89)nn7)c(C(F)F)n6)CC5)CC4)C3)c21 (stereo not shown) [Example 137, 3-(4-(8-(((1r,4r)-4-(3-(difluoromethyl)-4-(4-(5-(4-hydroxypiperidin-1-yl))pyrazolo[1,5-a]pyrimidin-3-yl)-1H-1,2,3-triazol-1-yl)-1H-pyrazol-1-yl)cyclohexyl)methyl)-2,8-diazaspiro[4.5]dec-2-yl)-3-methyl-2-oxo-2,3-dihydro-1H-benzo[d]imidazol-1-yl)piperidine-2,6-dione] |  |  | < 0.5 | A (Dmax ≥ 80%)
Cn1c(=O)n(C2CCC(=O)NC2=O)c2cccc(N3CCN(C4CCN(C[C@H]5CC[C@H](n6cc(-n7cc(-c8cnn9ccc(N%10CCC(O)CC%10)nc89)nn7)c(C(F)F)n6)CC5)CC4)CC3)c21 (stereo partly shown) [Example 138] | > 80 | < 0.5 |  | 
Cn1c(=O)n(C2CCC(=O)NC2=O)c2cccc(N3CCC4(CCN(C[C@H]5CC[C@H](n6cc(-n7cc(-c8cnn9ccc(N%10CCC[C@H](O)C%10)nc89)nn7)c(C(F)F)n6)CC5)CC4)C3)c21 (stereo partly shown) [Example 143] | > 80 | < 0.5 |  | 
Cn1c(=O)n(C2CCC(=O)NC2=O)c2cccc(N3CCN(C4CCN(C[C@H]5CC[C@H](n6cc(-n7cc(-c8cnn9ccc(N[C@H]%10CCCC[C@H]%10O)nc89)nn7)c(C(F)F)n6)CC5)CC4)CC3)c21 (stereo partly shown) [Example 149] | > 80 | < 0.5 |  | 
Cn1c(=O)n(C2CCC(=O)NC2=O)c2cccc(N3CCC(N4CCN(C[C@H]5CC[C@H](n6cc(-n7cc(-c8cnn9ccc(N%10CCC[C@H](N)C%10)nc89)nn7)c(C(F)F)n6)CC5)CC4)CC3)c21 (stereo partly drawn) [Example 150, 3-(4-(4-(1R,4R)-4-(4-(4-(5-(S)-3-aminopiperidin-1-yl)pyrazolo[1,5-a]pyrimidin-3-yl)-1H-1,2,3-triazol-1-yl)-3-(difluoromethyl)-1H-pyrazol-1-yl)cyclohexyl)methyl)piperazin-1-yl)piperidin-1-yl)-3-methyl-2-oxo-2,3-dihydro-1H-benzoimidazol-1-yl)piperidine-2,6-dione hydrochloride] | > 80 | < 0.5 |  | 
Cn1c(=O)n(C2CCC(=O)NC2=O)c2cccc(N3CCC4(CCN(C[C@H]5CC[C@H](n6cc(-n7cc(-c8cnn9ccc(N[C@@H]%10CCCC[C@@H]%10O)nc89)nn7)c(C(F)F)n6)CC5)CC4)C3)c21 (stereo partly shown) [Example 152] | > 80 | < 0.5 |  | 
C[C@H]1CN(c2cccc3c2n(C)c(=O)n3C2CCC(=O)NC2=O)CCN1C[C@H]1CC[C@H](n2cc(-n3cc(-n4ccc5cc(C(N)=O)cnc54)nn3)c(C(F)F)n2)CC1 (stereo partly shown) [Example 156] | > 80 | < 0.5 |  | 
